Results from paper PMC4942781, “A sodium channel inhibitor ISTX-I with a novel structure provides a new hint at the evolutionary link between two toxin folds” (Scientific Reports, 2016).
Bridge positions count the residues as written; N and C are the ends. Ends that are not written are not given here.

Assays:
hNav1.3 = assay: Whole-cell patch clamp, hNav1.3 in HEK293T cells; format: cell-based, human; details: 10 μM ISTX-I; 50 ms step to -10 mV from -80 mV
Protocol: HEK293T (human embryonic kidney) cells were grown in DMEM containing 10% heat-inactivated FBS at 37 °C in a 5% CO2 incubator. The cDNA genes encoding human (h)Nav1.1, (h)Nav1.2, (h)Nav1.3, (h)Nav1.4, (h)Nav1.5, (h)Nav1.6 and (h)Nav1.7 were transiently transfected into HEK293T cells for electrophysiology using Lipofectamine-2000 (Invitrogen) in serum-reduced medium (Opti-MEM, Invitrogen) following the manufacturer’s instructions. The auxiliary subunits hβ1 and enhanced green florescent protein plasmids were cotransfected into HEK293T cells to increase the current density and efficiently select cells with green florescent protein for whole-cell patch-clamp recordings. After 12 h, the HEK293T cells were used for electrophysiological analysis.
DRG neurons with a large diameter (>[…]) and those with a relatively small diameter (<[…]) were chosen by measuring TTX-s and TTX-r currents, respectively. […] Potassium, calcium, and sodium currents were recorded in experimental cells using whole-cell patch-clamp recordings at room temperature, which were performed with an HEK EPC10 patch-clamp amplifier. […] Experimental data were acquired and analyzed using the programs patch master and Sigmaplot 9.0 (Sigma, USA). […]
Currents were recorded from experimental cells using whole-cell patch clamptechnique at room temperature (22–25 °C). […]

TTX-s sodium channel = assay: Whole-cell patch clamp, TTX-s sodium currents in rat DRG neurons; format: cell-based
Protocol: The effects of ISTX-I on voltage-gated ion channels were investigated in the dorsal root ganglion (DRG). DRG neurons were held at −80 mV for over 4 min to allow adequate equilibration between the micropipette solution and the cell interior, and then current traces were evoked using a 50 ms step depolarization to −10 mV every second.
Figure 3 Effects of ISTX-I on voltage-gated ion channels in rat DRG neurons. […] (C) Dose-dependent inhibition of ISTX-I on the TTX-s Nav channel (n = 5). (D) Current-voltage (I-V) relationship for the TTX-s Nav channel currents before (solid circles) and after (open circles) the application of 5 μM ISTX-I (n = 5). (E) Conductance–voltage (G-V) relationship of the TTX-s Nav channel before (solid circles) and after (open circles) treatment with 5 μM ISTX-I (n = 5). (F) Steady-state inactivation of the TTX-s Nav channel currents before (solid circles) and after(open circles) the application of 10 μM ISTX-I (n = 5).
Rat DRG cells were acutely dissociated from adult Sprague-Dawley rats[30]. Briefly, adult rats of either sex with body weights of approximately 200 g were killed by decapitation. The dorsal root ganglia were isolated quickly from the spinal cord and then transferred into Dulbecco’s modified Eagle’s medium (DMEM) containing trypsin I (0.15 mg/mL) and collagenase II (0.3 mg/mL) for incubation with an oscillation frequency of 200 rpm at 37 °C for 20 min. The trypsin inhibitor II-S (1 mg/mL) was added to terminate the reaction. The isolated DRG cells were split into 35 mm culture dishes with DMEM solution containing 10% fetal bovine serum (FBS) and were incubated in a CO2 incubator (5% CO2, 95% air, 37 °C) for 1–4 h before the patch-clamp experiment.
DRG neurons with a large diameter (>[…]) and those with a relatively small diameter (<[…]) were chosen by measuring TTX-s and TTX-r currents, respectively. Meanwhile, TTX (final concentration at 100 nM) was used to separate TTX-r sodium currents from TTX-s sodium currents. Suction pipettes (2.0–4.0 MΩ) were made of borosilicate glass capillary tubes with two-step pulling on a vertical micropipette puller (PC-10, Narishige). Potassium, calcium, and sodium currents were recorded in experimental cells using whole-cell patch-clamp recordings at room temperature, which were performed with an HEK EPC10 patch-clamp amplifier. The P/4 protocol was used to subtract linear capacitive and leakage currents. Experimental data were acquired and analyzed using the programs patch master and Sigmaplot 9.0 (Sigma, USA). All of the data points represent the mean ± SE (n = the number of separate experimental cells examined). Dose-response curves were fitted using the following Hill logistic equation: y = 1 − (1 − fmax)/[1 + ([Tx]/IC50)^n] in which n is an empirical Hill coefficient and fmax is the fraction of current resistant to inhibition at high toxin (Tx) concentrations.
Electrophysiological studies.
Currents were recorded from experimental cells using whole-cell patch clamptechnique at room temperature (22–25 °C). The patch pipettes were fabricated from borosilicate glass tubing using a two-stage vertical microelectrode puller (PC-10, Narishige, Japan). After establishing the whole-cell recording configuration, the resting potential was held at −80 mV for at least 5 min to allow adequate equilibration between the micropipette solution and the cell interior. The micropipette solution of sodium currents for dorsal root ganglion neurons contained (in mM): 105 […]
Ionic currents were filtered at 3 kHz and sampled at 20 kHz on EPC-9 patch clamp amplifier (HEKA, Lambrecht, Germany).
Supplementary Figure legends
Figure S1. Expression, purification and molecular mass determination of recombinant ISTX-I. A: Separation of ISTX-I by Sephadex G-50 gel filtration. […]
protein molecular weight marker; lanes1&2, ISTX-I/pET-32a(+) uninduced and induced cells, respectively. B: The protein peak (indicated by an arrow) from […]

## LCSENGDCAADECCVDTVFEGDMVTRSCEKTTGNFTECPGLTPIA (disulfide 2-14, 8-28, 13-38) [ISTX-I]
hNav1.3
  effect on hNav1.3: no effect
TTX-s sodium channel
  effect on TTX-s sodium channels (summary): specifically inhibited TTX-s sodium channels
TTX-s sodium channel; 1 μM ISTX-I (legend of Fig. 3A)
  Inhibition of TTX-s Nav channel currents: Inhibition of TTX-s Nav channel currents
TTX-s sodium channel; 2 μM ISTX-I, 50 ms step depolarization to −10 mV, held at −80 mV, room temperature
  reduction of TTX-s sodium channel currents: approximately 50%
TTX-s sodium channel; 5 μM ISTX-I, TTX-s, n = 5
  change of conductance–voltage (G-V) relationship: No changes
  shift of current–voltage (I-V) curve: No changes
TTX-s sodium channel; 10 μM ISTX-I, TTX-s, n = 5
  shift of steady-state inactivation curve, hyperpolarized direction: approximately 11 mV
TTX-s sodium channel; Hill equation fit, 50 ms step to −10 mV from −80 mV, mean ± SE, n = 5
  IC50: 2.5 ± 1.4 µM
